Measured values reported in US20250129021A1, “SMALL MOLECULE PROTEIN SYNTHESIS MODULATORS” (Interdict Bio, Inc., priority 2023, published 2025).

Key:
Format in all cases: biochemical
[1] = test system: CCND1; test: In vitro transcription-translation (IVTT) assay, CCND1 reporter; conditions: IVTT, HeLa S3 lysate, 2 hrs at 30° C.
In short: (§1)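 Reporter: mCherry, P2A, then 3×FLAG-target peptide-sfGFP fusion, IRES-initiated; HeLa S3 lysate IVTT; cpd dilutions 30 μM−0.1 μM half-log in 100% DMSO (dilution-plate conc); DNA added last; 2 h, 30° C; PBS quench.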

[2] = test system: MYC; test: In vitro transcription-translation (IVTT) assay, MYC reporter; conditions: IVTT assay, HeLa S3 lysate, MYC reporter, normalized sfGFP/mCherry ratio; half-log dilutions 30 μM-0.1 μM, 2 hrs at 30° C.
In short: as §1

[3] = test system: MCL-1; test: In vitro transcription-translation (IVTT) assay, MCL-1 reporter; conditions: IVTT, HeLa S3 lysate, 2 hrs at 30° C.; read-out: MCL1 IC50
In short: as §1

[4] = test system: CCNTB1; test: In vitro transcription-translation (IVTT) assay, CCNTB1 reporter; conditions: HeLa S3 lysate, 2 hrs at 30° C.
In short: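 HeLa S3 lysate-based coupled transcription-translation reactions with reporter plasmids, compounds in half-log dilutions (30 μM−0.1 μM, in DMSO), 2 h at 30° C. sfGFP/mCherry ratio, corrected for no-DNA background, normalized to no-drug control and fitted for IC50.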

Row | SMILES | IC50 [1] | IC50 [3] | IC50 [4] | IC50 [2]
1 | COc1ccc(C[C@H]2NC[C@H](O)[C@H]2OC(=O)NCc2ccc3c(c2)CCNC3)cc1 [V188345, (2R,3S,4S)-4-hydroxy-2-[(4-methoxyphenyl)methyl]pyrrolidin-3-yl N-(1,2,3,4-tetrahydroisoquinolin-6-ylmethyl)carbamate] | < 10 µM | < 10 µM | < 10 µM | < 10 µM
2 | COc1ccc(C[C@H]2NC[C@H](O)[C@H]2OC(=O)NCc2ccc3cnccc3c2)cc1 [V188348, (2R,3S,4S)-4-hydroxy-2-[(4-methoxyphenyl)methyl]pyrrolidin-3-yl N-(isoquinolin-6-ylmethyl)carbamate] | < 10 µM | < 10 µM | < 10 µM | < 10 µM
3 | COc1ccc(C[C@H]2NC[C@H](O)[C@H]2OC(=O)NCc2ccc(C(N)=O)cc2)cc1 [V188296, (2R,3S,4S)-4-hydroxy-2-[(4-methoxyphenyl)methyl]pyrrolidin-3-yl N-[(4-carbamoylphenyl)methyl]carbamate] | < 10 µM | < 10 µM | < 10 µM | < 10 µM
4 | COc1ccc(C[C@H]2NC[C@H](O)[C@H]2OC(=O)NCC(=O)NCC(=O)O)cc1 [V188018, {2-[({[(2R,3S,4S)-4-hydroxy-2-[(4-methoxyphenyl)methyl]pyrrolidin-3-yl]oxy}carbonyl)amino]acetamido}acetic Acid] | > 30 µM | > 30 µM | > 30 µM | 10 to 20 µM
5 | COc1ccc(C[C@H]2NC[C@H](O)[C@H]2OC(=O)NCC[C@@H]2CCCN2)cc1 [V188341, (2R,3S,4S)-4-hydroxy-2-[(4-methoxyphenyl)methyl]pyrrolidin-3-yl N-{2-[(2S)-pyrrolidin-2-yl]ethyl}carbamate] | < 10 µM | < 10 µM | < 10 µM | < 10 µM
6 | COc1ccc(C[C@H]2NC[C@H](O)[C@H]2OC(=O)NCc2ccnc3c2CCN3)cc1 [V188360, (2R,3S,4S)-4-hydroxy-2-[(4-methoxyphenyl)methyl]pyrrolidin-3-yl N-{1H,2H,3H-pyrrolo[2,3-b]pyridin-4-ylmethyl}carbamate] | < 10 µM | < 10 µM | < 10 µM | < 10 µM
7 | COc1ccc(C[C@H]2NC[C@H](O)[C@H]2OC(=O)NCC(=O)N[C@@H](C)C(=O)O)cc1 [V188019, (2S)-2-{2-[({[(2R,3S,4S)-4-hydroxy-2-[(4-methoxyphenyl)methyl]pyrrolidin-3-yl]oxy}carbonyl)amino]acetamido}propanoic acid] | > 30 µM | > 30 µM | > 30 µM | 10 to 20 µM
8 | COc1ccc(C[C@H]2NC[C@H](O)[C@H]2OC(=O)NCc2ccc(C3CCNC3)cc2)cc1 (stereo partly drawn) [V188354, (2R,3S,4S)-4-hydroxy-2-[(4-methoxyphenyl)methyl]pyrrolidin-3-yl N-{[4-(pyrrolidin-3-yl)phenyl]methyl}carbamate] | < 10 µM | < 10 µM | < 10 µM | < 10 µM

Now from value to molecule, other results behind:

Row | IC50 [1] | IC50 [3] | IC50 [4] | SMILES | IC50 [2]
9 | < 10 µM | < 10 µM | < 10 µM | O=C(NCc1cccc(F)c1)O[C@@H]1[C@@H](O)CN[C@@H]1Cc1ccc(-n2ccnc2)cc1 [V190515, (2R,3S,4S)-4-hydroxy-2-{[4-(imidazol-1-yl)phenyl]methyl}pyrrolidin-3-yl N-[(3-fluorophenyl)methyl]carbamate] | < 10 µM
10 | > 30 µM | 20 to 30 µM | 20 to 30 µM | O=C(NCC[C@@H]1CCCN1)O[C@@H]1[C@@H](O)CN[C@@H]1Cc1ccc(-c2ccc(C(F)(F)F)cc2)cc1 [V191963, (2R,3S,4S)-4-hydroxy-2-{[4′-(trifluoromethyl)-[1,1′-biphenyl]-4-yl]methyl}pyrrolidin-3-yl N-{2-[(2S)-pyrrolidin-2-yl]ethyl}carbamate] | > 30 µM
11 | 10 to 20 µM | < 10 µM | < 10 µM | COc1ccc(C[C@H]2NC[C@H](O)[C@H]2OC(=O)NCC[C@@H]2CCC3(CC3)N2)cc1 [V191945, (2R,3S,4S)-4-hydroxy-2-[(4-methoxyphenyl)methyl]pyrrolidin-3-yl N-{2-[(5S)-4-azaspiro[2.4]heptan-5-yl]ethyl}carbamate] | < 10 µM
12 | < 10 µM | < 10 µM | < 10 µM | COc1ccc(C[C@H]2NC[C@H](O)[C@H]2OC(=O)NCc2cc(F)cc(F)c2)cc1 [V188380, (2R,3S,4S)-4-hydroxy-2-[(4-methoxyphenyl)methyl]pyrrolidin-3-yl N-[(3,5-difluorophenyl)methyl]carbamate] | < 10 µM
13 | 10 to 20 µM | 10 to 20 µM | < 10 µM | COc1ccc(C[C@H]2NC[C@H](O)[C@H]2OC(=O)NCC=C(C)C)cc1 [V190411, (2R,3S,4S)-4-hydroxy-2-[(4-methoxyphenyl)methyl]pyrrolidin-3-yl N-(3-methylbut-2-en-1-yl)carbamate] | 10 to 20 µM
14 | < 10 µM | < 10 µM | < 10 µM | COc1ccc(C[C@H]2NC[C@H](O)[C@H]2OC(=O)NCc2ccc(F)c(F)c2)cc1 [V190408, (2R,3S,4S)-4-hydroxy-2-[(4-methoxyphenyl)methyl]pyrrolidin-3-yl N-[(3,4-difluorophenyl)methyl]carbamate] | < 10 µM
15 | 10 to 20 µM | < 10 µM | < 10 µM | CCCOc1ccc(C[C@H]2NC[C@H](O)[C@H]2OC(=O)NCc2ccccc2)cc1 [V188376, (2R,3S,4S)-4-hydroxy-2-[(4-propoxyphenyl)methyl]pyrrolidin-3-yl N-benzylcarbamate] | < 10 µM
16 | 10 to 20 µM | < 10 µM | < 10 µM | COc1ccc(C[C@H]2NC[C@H](O)[C@H]2OC(=O)NCc2ccccc2F)cc1 [V190520, (2R,3S,4S)-4-hydroxy-2-[(4-methoxyphenyl)methyl]pyrrolidin-3-yl N-[(2-fluorophenyl)methyl]carbamate] | < 10 µM
17 | < 10 µM | < 10 µM | < 10 µM | O=C(NCc1cccc(F)c1)O[C@@H]1[C@@H](O)CN[C@@H]1Cc1ccc(-c2ncco2)cc1 [V190514, (2R,3S,4S)-4-hydroxy-2-{[4-(1,3-oxazol-2-yl)phenyl]methyl}pyrrolidin-3-yl N-[(3-fluorophenyl)methyl]carbamate] | < 10 µM
18 | < 10 µM | < 10 µM | < 10 µM | COc1ccc(C[C@H]2NC[C@H](O)[C@H]2OC(=O)NCc2ccccc2Cl)cc1 [V191915, (2R,3S,4S)-4-hydroxy-2-[(4-methoxyphenyl)methyl]pyrrolidin-3-yl N-[(2-chlorophenyl)methyl]carbamate] | < 10 µM
19 | < 10 µM | < 10 µM | < 10 µM | O=C(NCc1cccc(F)c1)O[C@@H]1[C@@H](O)CN[C@@H]1Cc1ccc(-c2cscn2)cc1 [V190511, (2R,3S,4S)-4-hydroxy-2-{[4-(1,3-thiazol-4-yl)phenyl]methyl}pyrrolidin-3-yl N-[(3-fluorophenyl)methyl]carbamate] | < 10 µM
20 | > 30 µM | > 30 µM | > 30 µM | O=C(NCC[C@@H]1CCCN1)O[C@@H]1[C@@H](O)CN[C@@H]1Cc1ccc(-c2ccc(F)c(F)c2)cc1 [V191962, (2R,3S,4S)-2-({3′,4′-difluoro-[1,1′-biphenyl]-4-yl}methyl)-4-hydroxypyrrolidin-3-yl N-{2-[(2S)-pyrrolidin-2-yl]ethyl}carbamate] | > 30 µM
